Results taken from ChEMBL document CHEMBL1201862, “PubChem BioAssay data set” (2004).
Activity calls are given as the source filed them.

What was measured:
[1] = molecular target: T1, Microphthalmia-associated transcription factor (Homo sapiens, UniProt O75030); assay: reducers of TRPM1 reporter luminescence, concentration series – cell-based, SK-MEL-5, cherry-picked, set 3, MITF inhibitor project, dose response (AID 493073); format: functional;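 also: SK-MEL-5 melanoma cells with luciferase driven by the MITF target TRPM1 promoter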
T1 sequence (O75030 whole entry): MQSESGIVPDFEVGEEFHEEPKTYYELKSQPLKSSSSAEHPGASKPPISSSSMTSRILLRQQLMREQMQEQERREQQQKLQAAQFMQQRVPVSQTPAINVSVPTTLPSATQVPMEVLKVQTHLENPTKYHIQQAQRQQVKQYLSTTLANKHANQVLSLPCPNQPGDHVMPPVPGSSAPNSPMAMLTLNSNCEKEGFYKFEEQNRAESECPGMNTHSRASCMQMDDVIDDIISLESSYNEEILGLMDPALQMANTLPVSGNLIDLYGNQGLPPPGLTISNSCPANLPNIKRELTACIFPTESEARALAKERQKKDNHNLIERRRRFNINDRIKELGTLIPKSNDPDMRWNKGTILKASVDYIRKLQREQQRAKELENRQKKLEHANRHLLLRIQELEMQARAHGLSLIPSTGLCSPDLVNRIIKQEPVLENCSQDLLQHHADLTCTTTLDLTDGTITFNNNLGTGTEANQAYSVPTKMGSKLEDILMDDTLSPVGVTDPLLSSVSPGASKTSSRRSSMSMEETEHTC

[2] = molecular target: Luciferin 4-monooxygenase (Photinus pyralis, UniProt P08659); assay: inhibition of purified Photinus pyralis luciferase – biochemical, luminescence, dose response (AID 1891)
[3] = A549 cell cytotoxicity, dose response, cytotoxicity control, plate reader, cherry-pick, antagonist series (AID 743412); format: functional, cell-based
[4] = system: BJ; assay: BJ-TERT-LT-ST fibroblast viability loss – cell-based, RAS-independent, luminescence, dose response (AID 1935); format: functional; conditions: Homo sapiens;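 also: BJ fibroblasts immortalized with TERT plus LT and ST oncogenes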
[5] = molecular target: Dual specificity tyrosine-phosphorylation-regulated kinase 1A (Rattus norvegicus, UniProt Q63470); format: biochemical, Homo sapiens
[6] = blockade of melanocortin 4 receptor signaling – cell-based, plate reader, cherry pick, counter-screen for LGR2 antagonist project, dose response (AID 743444); format: functional;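 also: transfected HEK 293 cells stimulated with alpha-MSH peptide; potency of inhibitors of the alpha-MSH evoked signal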
[7] = luciferase inhibitors in kinase-free ADP detection – biochemical, luminescence, cherry-pick, set 02, artefact control for Dyrk1A inhibitor project, dose response (AID 588348)
[8] = blockers of bursicon-stimulated LGR2 cAMP reporter – cell-based, HEK293, CRE-luciferase reporter, cherry pick, set 2, dose response (AID 743343); format: functional;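 also: transfected cells were stimulated with diluted bursicon conditioned medium after compound addition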
[9] = viability loss in HEK293 cells – cell-based, plate reader, cherry-picked samples, cytotoxicity control, dose response (AID 743446); format: functional
[10] = system: BJ; assay: BJ-TERT fibroblast viability loss – cell-based, RAS-independent, luminescence, dose response (AID 1933); format: functional; conditions: Homo sapiens
[11] = DRD fibroblast viability loss – cell-based, non-viral oncogenic, luminescence, dose response (AID 1934); format: functional; conditions: Homo sapiens
[12] = system: BJ; assay: cells; format: functional, cell-based; conditions: Homo sapiens
[13] = ADP-Glo luciferase signal interference – biochemical, luminescence, cherry-picked samples, set 2, artefact control for CDK5 inhibitor project, dose response (AID 504546); format: functional, cell-based
[14] = toxicity toward HepG2 liver cells – cell-based, plate reader, cherry-pick, antagonist series, cytotoxicity control, dose response (AID 743416); format: functional
[15] = Luminescence Cell-Based Dose Confirmation HTS to Identify Inhibitors of Platelet Dense Granule Release. [Related pubchem assays: 1663 (Primary HTS), 1678 (Summary of Project)]; format: functional
[16] = molecular target: T2, Orexin/Hypocretin receptor type 1 (Homo sapiens, UniProt O43613); assay: Homogeneous Time Resolved Fluorescence (HTRF)-based cell-based high throughput dose response assay for antagonists of the orexin 1 receptor (OX1R; HCRTR1). [Related pubchem assays (depositor defined):AID434989, AID435008, AID463079, AID485270, AID492963, AID492964, AID492965, AID493232, AID504717, AID504718]; format: functional
[17] = system: CHO-K1; assay: (§1) Counterscreen for antagonists of the orexin 1 receptor (OX1R; HCRTR1): Homogeneous time resolved fluorescence (HTRF)-based cell-based dose response assay to identify antagonists of the parental CHO-K1 cell line. [Related pubchem assays (depositor defined):AID434989, AID435008, AID463079, AID485270, AID492963, AID492964, AID492965, AID493232, AID504699, AID504701]; format: functional; conditions: Cricetulus griseus
[18] = as §1, with “Fluorescence-based” for “Homogeneous time resolved fluorescence (HTRF)-based”, “cell-based high throughput” for “cell-based”, “CHO” for “CHO-K1”; format: functional
[19] = molecular target: T2, Orexin/Hypocretin receptor type 1; assay: Fluorescence-based cell-based high throughput dose response assay for antagonists of the orexin 1 receptor (OX1R; HCRTR1). [Related pubchem assays (depositor defined):AID434989, AID435008, AID463079, AID485270, AID492963, AID492964, AID492965, AID493232, AID504717, AID504718]; format: functional
[20] = molecular target: T3, Orexin receptor type 2 (Homo sapiens, UniProt O43614); assay: Counterscreen assay for antagonists of the orexin 1 receptor (OX1R; HCRTR1): Fluorescence-based cell-based dose response assay for antagonists of the orexin 2 receptor (OX2R; HCRTR2), run by assay provider.; format: functional
[21] = molecular target: T3, Orexin receptor type 2; assay: Counterscreen assay for antagonists of the orexin 1 receptor (OX1R; HCRTR1): Homogeneous Time Resolved Fluorescence (HTRF)-based cell-based dose response assay for antagonists of the orexin 2 receptor (OX2R; HCRTR2), run by assay provider.; format: functional
[22] = molecular target: Heat shock protein HSP 90-alpha (Homo sapiens, UniProt P07900); format: functional, organism-based
[23] = system: HEK293; assay: HEK293T cell viability loss, resazurin readout – resazurin fluorescence, cytotoxicity control for NF-kB activator project, SAR follow-up (AID 493251); format: functional, cell-based; conditions: Homo sapiens
[24] = system: HEK293; assay: SAR Analysis of small molecule inhibitors of both B-cell and T-cell specific antigen receptor-induced NF-kB activation in a HEK-293T cell line using a luminescence assay. [Related pubchem assays (depositor defined):AID435003, AID435022, AID465, AID489019, AID489029]; format: functional, cell-based; conditions: Homo sapiens
[25] = system: Jurkat; assay: SAR Analysis of small molecule inhibitors of both B-cell and T-cell specific antigen receptor-induced NF-kB activation in a Jurkat cell line using a luminescence assay. [Related pubchem assays (depositor defined):AID435003, AID435022, AID465, AID489029]; format: functional, cell-based; conditions: Homo sapiens
[26] = molecular target: T4, High affinity choline transporter 1 (Homo sapiens, UniProt Q9GZV3); assay: human choline transporter potentiators, potency – cell-based, 10-point CRC, membrane potential dye, dose response (AID 602376); format: functional
T4 sequence (Q9GZV3 whole entry): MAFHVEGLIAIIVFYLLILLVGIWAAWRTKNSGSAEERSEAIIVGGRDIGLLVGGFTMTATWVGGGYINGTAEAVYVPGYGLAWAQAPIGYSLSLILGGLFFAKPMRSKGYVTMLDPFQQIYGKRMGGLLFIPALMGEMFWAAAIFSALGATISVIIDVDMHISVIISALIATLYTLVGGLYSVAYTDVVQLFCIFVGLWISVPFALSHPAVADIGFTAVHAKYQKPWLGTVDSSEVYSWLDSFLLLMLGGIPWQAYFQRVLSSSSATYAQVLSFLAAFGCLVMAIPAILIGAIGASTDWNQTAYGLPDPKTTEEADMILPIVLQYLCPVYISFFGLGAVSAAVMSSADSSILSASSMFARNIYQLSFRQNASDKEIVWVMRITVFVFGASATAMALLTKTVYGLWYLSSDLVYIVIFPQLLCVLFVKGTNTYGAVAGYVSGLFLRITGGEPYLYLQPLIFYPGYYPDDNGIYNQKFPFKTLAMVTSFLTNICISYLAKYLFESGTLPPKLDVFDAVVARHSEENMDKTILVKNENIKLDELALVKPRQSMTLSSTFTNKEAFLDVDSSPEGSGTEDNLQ

[27] = loss of viability in HepG2 cells – cell-based, CellTiter-Glo, cherry-picked, cytotoxicity control for Shn3 inhibitor project, dose response (AID 624134); format: functional
[28] = molecular target: Phospholipase D2 (Homo sapiens, UniProt O14939); assay: cellular phospholipase D2 inhibition IC50 – cell-based, dose response (AID 602147); format: functional;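 also: cellular assay in HEK293 cells overexpressing GFP-tagged PLD2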
[29] = molecular target: Phospholipase D1 (Homo sapiens, UniProt Q13393); assay: cellular phospholipase D1 inhibition IC50 – cell-based, dose response (AID 602151); format: functional;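 also: cellular PLD1 assay in Calu-1 cells stimulated with PMA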
[30] = molecular target: Calcium/calmodulin-dependent protein kinase type 1 (Homo sapiens, UniProt Q14012); format: functional
[31] = molecular target: Inhibitor of nuclear factor kappa-B kinase subunit beta (Homo sapiens, UniProt O14920); format: functional
[32] = molecular target: Serine/threonine-protein kinase MRCK alpha (Homo sapiens, UniProt Q5VT25); format: functional
[33] = molecular target: cAMP-dependent protein kinase catalytic subunit alpha (Homo sapiens, UniProt P17612); format: functional
[34] = molecular target: Ribosomal protein S6 kinase alpha-3 (Homo sapiens, UniProt P51812); format: functional;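 also: measured within a kinome-wide profiling panel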
[35] = molecular target: Casein kinase II subunit alpha (Homo sapiens, UniProt P68400); format: functional
[36] = molecular target: 5'-AMP-activated protein kinase catalytic subunit alpha-1 (Homo sapiens, UniProt Q13131); format: functional
[37] = Vero cell cytotoxicity, cytotoxicity control for M. tuberculosis inhibitor project, purified and synthesized samples, set 3 (AID 504684); format: functional
[38] = A Cell Based Secondary Assay to Explore Cytotoxicity in HepG2 Cells of Compounds that Modulate Mycobacterium tuberculosis in Media Containing Glycerol versus Media without Glycerol (2).; format: functional
[39] = NIH3T3 cell viability loss – ATP luminescence, mouse fibroblasts, counter-screen, dose response (AID 2010); format: functional, cell-based;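 also: cells exposed to compound for about 90 hours before reading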
[40] = microbe, parasite or virus in culture; format: functional; conditions: Mycobacterium tuberculosis
[41] = Trypanosoma cruzi growth suppression in host cells – NIH3T3 host cells, beta-gal luminescence, confirmation (AID 2044); format: functional, cell-based;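 also: intracellular parasites grown in NIH/3T3 mouse fibroblasts as host cells; luminescent beta-galactosidase reporter signal from transgenic T. cruzi replicating inside host cells; inhibitors lower the luminescence signal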
[42] = THP-1 cell cytotoxicity, dose response, cytotoxicity control for non-replicating M. tuberculosis project (AID 489025); format: functional
[43] = cells; format: functional
[44] = A Cell Based Secondary Assay to Explore Cytotoxicity in THP-1 Cells of Compounds that Modulate Mycobacterium tuberculosis in Media Containing Glycerol versus Media without Glycerol (2).; format: functional

T2 sequence (O43613 whole entry): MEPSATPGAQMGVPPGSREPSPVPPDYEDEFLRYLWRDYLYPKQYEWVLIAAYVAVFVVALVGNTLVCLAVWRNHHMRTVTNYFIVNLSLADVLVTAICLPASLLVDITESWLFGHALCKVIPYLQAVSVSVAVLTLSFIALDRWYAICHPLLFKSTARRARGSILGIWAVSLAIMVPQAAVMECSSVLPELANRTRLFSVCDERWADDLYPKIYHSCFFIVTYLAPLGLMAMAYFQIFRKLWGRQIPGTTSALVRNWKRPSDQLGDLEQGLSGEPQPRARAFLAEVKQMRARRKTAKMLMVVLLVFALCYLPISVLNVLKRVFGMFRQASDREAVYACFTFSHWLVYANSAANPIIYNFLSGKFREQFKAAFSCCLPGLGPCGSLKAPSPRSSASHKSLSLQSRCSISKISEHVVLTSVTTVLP
T3 sequence (O43614 whole entry): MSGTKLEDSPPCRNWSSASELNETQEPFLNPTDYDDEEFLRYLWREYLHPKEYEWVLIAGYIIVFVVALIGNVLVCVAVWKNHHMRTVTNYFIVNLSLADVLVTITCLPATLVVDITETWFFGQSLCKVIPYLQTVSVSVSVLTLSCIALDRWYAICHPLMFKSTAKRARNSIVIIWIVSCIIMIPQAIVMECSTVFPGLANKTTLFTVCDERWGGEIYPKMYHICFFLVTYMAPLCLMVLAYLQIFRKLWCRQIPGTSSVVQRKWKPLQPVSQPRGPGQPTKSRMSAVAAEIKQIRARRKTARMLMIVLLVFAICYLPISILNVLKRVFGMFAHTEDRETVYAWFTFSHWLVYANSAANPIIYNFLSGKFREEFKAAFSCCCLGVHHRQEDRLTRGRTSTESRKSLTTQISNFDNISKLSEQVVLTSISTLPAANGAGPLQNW
Sequence of Calcium/calmodulin-dependent protein kinase type 1 (Q14012 whole entry): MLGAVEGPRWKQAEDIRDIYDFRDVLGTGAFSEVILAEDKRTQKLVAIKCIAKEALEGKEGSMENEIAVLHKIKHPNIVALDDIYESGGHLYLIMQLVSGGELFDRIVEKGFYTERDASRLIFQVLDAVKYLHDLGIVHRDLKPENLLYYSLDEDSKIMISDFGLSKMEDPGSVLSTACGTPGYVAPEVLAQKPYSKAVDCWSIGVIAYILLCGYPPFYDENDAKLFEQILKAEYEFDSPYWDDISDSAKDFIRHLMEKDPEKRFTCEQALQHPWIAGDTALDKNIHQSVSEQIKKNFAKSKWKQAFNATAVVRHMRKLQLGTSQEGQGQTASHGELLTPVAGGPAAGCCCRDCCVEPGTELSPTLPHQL
Sequence of Phospholipase D1 (Q13393 whole entry): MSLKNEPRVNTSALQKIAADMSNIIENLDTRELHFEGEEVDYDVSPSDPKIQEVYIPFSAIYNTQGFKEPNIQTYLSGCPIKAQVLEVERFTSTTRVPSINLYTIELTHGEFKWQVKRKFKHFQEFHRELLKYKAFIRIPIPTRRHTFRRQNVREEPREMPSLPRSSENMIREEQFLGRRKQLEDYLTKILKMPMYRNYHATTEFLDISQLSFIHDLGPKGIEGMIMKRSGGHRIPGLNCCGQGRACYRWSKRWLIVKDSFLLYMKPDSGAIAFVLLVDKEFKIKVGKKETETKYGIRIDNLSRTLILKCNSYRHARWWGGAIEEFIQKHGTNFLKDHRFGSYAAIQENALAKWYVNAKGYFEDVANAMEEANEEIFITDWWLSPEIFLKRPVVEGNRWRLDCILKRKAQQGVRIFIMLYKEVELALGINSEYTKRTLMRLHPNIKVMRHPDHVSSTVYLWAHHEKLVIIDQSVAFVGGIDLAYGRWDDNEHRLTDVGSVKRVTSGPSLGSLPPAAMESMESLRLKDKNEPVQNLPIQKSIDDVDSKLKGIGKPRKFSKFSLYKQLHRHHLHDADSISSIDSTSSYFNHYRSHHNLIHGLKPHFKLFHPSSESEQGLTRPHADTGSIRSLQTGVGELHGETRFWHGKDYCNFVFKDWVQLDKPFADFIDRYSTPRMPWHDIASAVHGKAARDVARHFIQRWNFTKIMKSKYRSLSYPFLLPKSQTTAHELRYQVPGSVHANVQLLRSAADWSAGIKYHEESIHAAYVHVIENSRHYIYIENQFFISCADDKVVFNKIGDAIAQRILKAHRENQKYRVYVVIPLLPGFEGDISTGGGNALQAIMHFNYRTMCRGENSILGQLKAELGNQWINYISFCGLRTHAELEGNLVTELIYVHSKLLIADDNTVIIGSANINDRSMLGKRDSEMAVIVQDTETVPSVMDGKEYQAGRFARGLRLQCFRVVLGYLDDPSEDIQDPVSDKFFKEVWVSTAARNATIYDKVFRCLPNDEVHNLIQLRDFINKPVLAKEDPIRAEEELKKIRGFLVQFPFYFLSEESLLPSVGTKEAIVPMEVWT
Sequence of Phospholipase D2 (O14939 whole entry): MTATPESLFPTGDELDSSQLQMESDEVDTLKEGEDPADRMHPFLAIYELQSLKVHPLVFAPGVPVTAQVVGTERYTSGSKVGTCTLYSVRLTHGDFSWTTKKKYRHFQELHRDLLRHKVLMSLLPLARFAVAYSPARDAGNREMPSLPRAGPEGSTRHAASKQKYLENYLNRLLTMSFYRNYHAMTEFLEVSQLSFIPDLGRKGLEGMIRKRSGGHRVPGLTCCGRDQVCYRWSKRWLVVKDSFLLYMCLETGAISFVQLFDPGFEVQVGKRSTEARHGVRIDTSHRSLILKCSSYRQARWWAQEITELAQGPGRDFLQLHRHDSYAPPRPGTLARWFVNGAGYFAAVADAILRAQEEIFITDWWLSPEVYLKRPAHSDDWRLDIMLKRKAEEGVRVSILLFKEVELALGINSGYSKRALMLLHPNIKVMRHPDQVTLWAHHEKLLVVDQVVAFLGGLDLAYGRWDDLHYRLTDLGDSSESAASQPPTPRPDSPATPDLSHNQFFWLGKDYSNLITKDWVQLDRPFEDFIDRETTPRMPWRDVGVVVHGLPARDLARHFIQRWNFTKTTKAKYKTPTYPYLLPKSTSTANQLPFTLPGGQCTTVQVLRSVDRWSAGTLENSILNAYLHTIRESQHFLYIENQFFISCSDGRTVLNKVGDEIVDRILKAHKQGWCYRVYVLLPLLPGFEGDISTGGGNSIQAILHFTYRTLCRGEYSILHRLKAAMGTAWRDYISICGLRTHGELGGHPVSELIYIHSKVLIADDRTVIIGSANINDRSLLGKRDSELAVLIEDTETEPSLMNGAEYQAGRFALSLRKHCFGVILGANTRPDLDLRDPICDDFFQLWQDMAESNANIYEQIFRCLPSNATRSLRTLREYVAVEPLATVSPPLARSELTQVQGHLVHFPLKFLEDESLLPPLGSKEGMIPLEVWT
Sequence of Inhibitor of nuclear factor kappa-B kinase subunit beta (O14920 whole entry): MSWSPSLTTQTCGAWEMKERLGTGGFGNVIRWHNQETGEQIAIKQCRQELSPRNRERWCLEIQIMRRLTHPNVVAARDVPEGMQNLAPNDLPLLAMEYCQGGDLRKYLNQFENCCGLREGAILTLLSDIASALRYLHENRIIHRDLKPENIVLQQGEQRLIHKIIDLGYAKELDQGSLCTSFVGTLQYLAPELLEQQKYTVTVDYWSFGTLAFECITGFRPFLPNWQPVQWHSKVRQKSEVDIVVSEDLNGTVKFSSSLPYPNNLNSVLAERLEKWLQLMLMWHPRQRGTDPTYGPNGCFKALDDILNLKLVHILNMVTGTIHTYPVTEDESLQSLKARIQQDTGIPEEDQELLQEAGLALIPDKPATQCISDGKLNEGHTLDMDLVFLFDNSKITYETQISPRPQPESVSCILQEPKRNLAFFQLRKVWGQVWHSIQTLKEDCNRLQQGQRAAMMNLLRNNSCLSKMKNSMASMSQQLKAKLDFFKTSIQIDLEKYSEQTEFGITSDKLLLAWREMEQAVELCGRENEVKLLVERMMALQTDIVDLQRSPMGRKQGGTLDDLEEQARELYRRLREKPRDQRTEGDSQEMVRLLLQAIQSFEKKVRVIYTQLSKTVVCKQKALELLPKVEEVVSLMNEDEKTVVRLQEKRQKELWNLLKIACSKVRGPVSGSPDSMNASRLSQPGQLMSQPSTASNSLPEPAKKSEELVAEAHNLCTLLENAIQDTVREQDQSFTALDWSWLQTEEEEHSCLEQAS
Sequence of 5'-AMP-activated protein kinase catalytic subunit alpha-1 (Q13131 whole entry): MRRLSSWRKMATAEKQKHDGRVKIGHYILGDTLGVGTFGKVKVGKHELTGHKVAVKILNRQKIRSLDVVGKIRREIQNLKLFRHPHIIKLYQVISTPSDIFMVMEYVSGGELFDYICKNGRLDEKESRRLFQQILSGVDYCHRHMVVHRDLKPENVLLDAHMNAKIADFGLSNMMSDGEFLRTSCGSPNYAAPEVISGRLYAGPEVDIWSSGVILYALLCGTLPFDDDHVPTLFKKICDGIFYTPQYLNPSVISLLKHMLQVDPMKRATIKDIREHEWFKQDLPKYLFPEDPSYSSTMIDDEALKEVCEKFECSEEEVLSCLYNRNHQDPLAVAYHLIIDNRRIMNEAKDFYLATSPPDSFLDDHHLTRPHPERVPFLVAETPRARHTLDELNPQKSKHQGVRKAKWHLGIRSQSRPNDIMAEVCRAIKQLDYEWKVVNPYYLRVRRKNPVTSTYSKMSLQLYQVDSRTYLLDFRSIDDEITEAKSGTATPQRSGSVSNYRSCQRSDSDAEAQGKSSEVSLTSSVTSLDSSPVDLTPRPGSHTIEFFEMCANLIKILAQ
Sequence of Casein kinase II subunit alpha (P68400 whole entry): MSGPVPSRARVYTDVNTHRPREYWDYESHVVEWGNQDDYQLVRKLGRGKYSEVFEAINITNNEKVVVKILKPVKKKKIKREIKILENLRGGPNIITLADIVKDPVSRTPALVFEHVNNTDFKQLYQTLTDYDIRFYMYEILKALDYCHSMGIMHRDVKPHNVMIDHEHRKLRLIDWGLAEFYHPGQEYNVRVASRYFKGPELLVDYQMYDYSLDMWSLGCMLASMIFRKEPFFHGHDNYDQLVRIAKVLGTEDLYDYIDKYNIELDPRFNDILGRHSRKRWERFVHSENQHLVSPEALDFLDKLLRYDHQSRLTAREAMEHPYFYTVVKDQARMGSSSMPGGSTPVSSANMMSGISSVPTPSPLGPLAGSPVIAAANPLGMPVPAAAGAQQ

## CCOc1ccc(-c2ccc(SC)nn2)cc1
[1]
  AC50: 5.17 µM (active)
[2]
  EC50: 2.3 µM (active)
[3]
  AC50: 18.6 µM (active)
[4]
  EC50: > 150 µM (not active)
[5]
  AC50: 20.8 µM (active)
[6]
  AC50: 2.36 µM (active)
[7]
  AC50: 26.1 µM (active)
[8]
  AC50: 3.05 µM (active)
[9]
  AC50: 14 µM (active)
[10]
  EC50: 11.5 µM (active)
[11]
  EC50: 9.86 µM (active)
[12]
  EC50: 9.15 µM (active)
[13]
  AC50: 76.7 µM (active)
[14]
  AC50: 15 µM (active)
[15]
  EC50: 1.74 µM (active)

## O=C(NC(Cc1c[nH]c2ccccc12)C(=O)N/N=C/c1ccc(Br)cc1)c1cccs1 (centres undefined)
[16]
  IC50: 2.99 µM (active)
[17]
  IC50: > 66.2 µM (inactive)
[18]
  IC50: > 49.8 µM (inactive)
[19]
  IC50: 7.4 µM (active)
[20]
  IC50: 14.3 µM (inactive)
[21]
  IC50: 11.1 µM (inactive)

## N/C(Cc1ccc(Cl)cc1)=N\OC(=O)c1cccc2ccccc12
[22]
  AC50: 1.8 µM (active)

## Cc1ccc(S(=O)(=O)Nc2cccc3ccc(C)nc23)cc1
[23]
  IC50: > 80 µM (inactive)
[24]
  IC50: > 79 µM (inactive)
[25]
  IC50: 1.79 µM (active)

## C[C@@H]1CC=C[C@H]2[C@H]1C(=O)N(Cc1ccccc1)[C@H]2c1cccc([N+](=O)[O-])c1
[26]
  EC50: 22.7 µM (active)
[27]
  AC50: 58.9 µM (active)

## O=C(NCCN1CCC(C(=O)NCC2CC2)CC1)c1ccc2ccccc2c1
[28]
  IC50: 20 µM (active)
[29]
  IC50: 20 µM (active)

## NCCn1cc(-c2cc(-c3cc4ccccc4s3)c3[nH]ncc3c2)c2nc(N)ncc21
[30]
  Ki: > 7.94 µM (inactive)
[31]
  Ki: 0.251 µM (active)
[32]
  Ki: 3.16 µM (active)
[33]
  Ki: 0.0501 µM (active)
[34]
  Ki: 3.16 µM (active)
[35]
  Ki: > 6.31 µM (inactive)
[36]
  Ki: 0.398 µM (active)

## O=C(NCC(c1cccs1)N1CCOCC1)c1cc([N+](=O)[O-])cc([N+](=O)[O-])c1 (centres undefined)
[37]
  CC50: 44.4 µM (active)
[38]
  CC50: > 50 µM (active)
[39]
  EC50: > 60 µM (not active)
[40]
  CC50: > 40 µM (active)
[41]
  EC50: 0.726 µM (active)
[42]
  CC50: > 40 µM (active)
[43]
  IC50: 1.37 µM (active)
[44]
  CC50: 69 µM (active)
